Measurements as given in US5179122A, “Nutritional supplement containing Vitamin E” (priority 1991, dated 1993).
Like-named read-outs stand apart in the source and are kept apart here. Blank lines part the entries; values can stand above or below the compound they belong to.

Columns and labels:
[1] = same patients; tocopherol in vegetable oil; cited from earlier work
[2] = some species; even in water dispersible forms; cited from earlier work
[3] = solubilized in medium-chain triglycerides; cited from earlier work
[4] = rats; aqueous lecithin dispersed, containing medium chain triglycerides; cited from earlier work
[5] = Melt temperature of VEA/Myvatex Texture Lite blends by differential scanning calorimetry; type: physicochemical; details: VEA/Myvatex Texture Lite (wt. %); DSC
Excerpt: This example illustrates the affect of Myvatex Texture Lite food emulsifier on the melt temperature of VEA. The solid blend was formulated as described in Example 2.

[6] = Melt temperature of VEA/TPGS blends by differential scanning calorimetry; type: physicochemical
Method: In this example, miscibility of the blends was investigated by determining the melt temperature of various blend ratios. […] The mixture was heated and blended to a homogeneous blend and cooled to room temperature. The melting point of each blend was determined by differential scanning calorimetry.

[7] = 3% aqueous solution of Tween-80; cited from earlier work
[8] = horses; 0, 200, 600, 1800 and 5400 mg daily; cited from earlier work
[9] = zoo animals; remaining excreted unchanged; cited from earlier work
[10] = human, in vivo, po; cited from earlier work

Compound: Cc1c(C)c2c(c(C)c1O)CCC(C)(CCCC(C)CCCC(C)CCCC(C)C)O2 (stereo not drawn) [tocopherol, alpha-tocopherol]
increase of tocopherol in the blood [1]: no significant increase
bioavailability [2]: not bioavailable
absorption of tocopherol [3]: enhanced absorption

Melt Temperature [5]: 2.9 °C
Melt Temperature ([6]; VEA/TPGS (wt. %), DSC): 2.9 °C
TPGS required to solidify VEA ([6]; at room temperature): 25%
Compound: CC(=O)Oc1c(C)c(C)c2c(c1C)CCC(C)(CCC[C@H](C)CCC[C@H](C)CCCC(C)C)O2 (mixture of isomers) [VEA, d- or dl-alpha-tocopheryl acetate]
bioavailability [2]: not bioavailable
absorption of tocopherol [4]: enhanced absorption
absorption rate relative to vegetable oil solution of VEA [7]: twice the rate

Compound: CC(=O)Oc1c(C)c(C)c2c(c1C)CCC(C)(CCCC(C)CCCC(C)CCCC(C)C)O2 (racemic) [dl-alpha-tocopheryl acetate]
serum tocopherol levels with increasing dosage [8]: increased almost linearly
administered tocopherol absorbed [9]: one-half

Compound: Vitamin A
absorption [10]: enhanced absorption

Compound: Vitamin E
absorption [10]: enhanced absorption
